In patent US20040234610A1, “Medical device and method for inhalation of aerosolized drug with heliox” (priority 2001, published 2004):

System: adult patients with severe acute exacerbation of asthma
Test: Randomized study, albuterol nebulized with heliox 80:20 vs oxygen (control) through semi-closed system, FEV1 spirometry
Format: in vivo, human
From the text: Forty-five patients were randomized to receive albuterol nebulized with oxygen (control) versus heliox. At baseline, demographics, outpatient asthma medications, vital signs, oxygen saturation and forced expiratory volume in one second (FEV1) were not different between the two groups. Three consecutive albuterol treatments were given to each group.
The study subjects were adult patients who presented to the Emergency Department at the University of Chicago Medical Center for a severe acute exacerbation of asthma. The study was approved by the Institutional Review Board and all patients enrolled gave written informed consent before beginning the study. Patients 50 years of age or under meeting American Thoracic Society criteria for the diagnosis of asthma were eligible. To assure that only those with severe persistent asthma were studied, only those patients with baseline forced expiratory volume in one second (FEV1) less than fifty percent predicted were enrolled in the study.
The heliox delivery system consisted of a facemask connected to a Y-piece with the nebulizer (Airlife™ Misty-Neb™ Nebulizer) on one limb and a non-rebreather bag on the other limb (as shown in FIG. 1). Heliox flow to the nebulizer was set at 10 liters/minute (via an oxygen calibrated flow meter thus equivalent to 18 L/min Heliox flow). A separate flow of 10 liters/minute of heliox (via an oxygen calibrated flow meter thus equivalent to 18 L/min Heliox flow) was delivered to the non-rebreather bag. […] Each treatment continued until the nebulizer was dry—a period of approximately ten minutes, followed by a fifteen minute washout period. The total time for the study was approximately 90 minutes. Corticosteroid therapy for asthma exacerbations was directed by the emergency room physicians, who were not directly involved in the study.
To assure its accuracy for the purpose of this study, the spirometer was tested every other week using a three liter syringe. In addition, the accuracy of FEV, recordings was tested by having subjects perform forced expiratory maneuvers through the portable spirometer at varying flow rates while it was in-line with a Medical Graphics 1070 pulmonary function testing system. (This system was calibrated daily.) This test was also performed every other week for the first three months of the study and monthly thereafter.
Patients performed a minimum of three forced expiratory maneuvers with values recorded according to the American Thoracic Society recommendations (American Thoracic Society: Standardization of spirometry—1994 update, Am. J. Respir. Crit. Care Med. 152:1107-36 (1995)). All spirometric measurements were made by investigators who were blinded to the gas used for albuterol nebulization. […] Patients were not told explicitly which treatment limb they were randomized to; however, because of potential voice changes while breathing heliox, it was not possible to assure that patients were blinded to which therapy they received.
Demographic data, chronic asthma medications, emergency room corticosteroid administration, vital signs (heart rate, mean arterial pressure, respiratory rate), oxygen saturation by pulse oximetry, emergency room length of stay and hospital admissions from the emergency room were recorded for all patients. Data are expressed as mean±SD when normally distributed and median (interquartile range) when not normally distributed. Interval data were compared using a two-tailed Student's t test or Mann Whitney U test according to normality of distribution, categorical data were compared using Chi square or Fisher Exact test when appropriate. […] The Student-Newman-Keuls test was used to compare differences between heliox and control groups after each nebulization treatment when appropriate. […] A 25% difference in percent change in FEV1 between the control and heliox groups was considered clinically important. […]

CC(C)(C)NCC(O)c1ccc(O)c(CO)c1 (stereo not drawn) [albuterol]
median percent change in FEV1 from baseline (control group (nebulized with oxygen 10 L/min), after albuterol treatment 1): 14.6%
median percent change in FEV1 from baseline (control group (oxygen), after treatment 2): 22.7%
median percent change in FEV1 from baseline (control group (oxygen), after treatment 3): 26.6%
median percent change in FEV1 from baseline (heliox group (nebulized with heliox 80:20), after albuterol treatment 1, P=0.007 vs control): 32.4%
median percent change in FEV1 from baseline (heliox group, after treatment 2, P=0.007 vs control): 51.5%
median percent change in FEV1 from baseline (heliox group, after treatment 3, P=0.016 vs control): 65.1%
